Measurements as given in ChEMBL document CHEMBL1201862, “PubChem BioAssay data set” (2004).
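How tested: cells in 96-well plates exposed to compound for 48 hours at five concentrations. Abbreviation: GI50, concentration required for 50% inhibition of growth.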 The source made the active and inactive calls. Rule as the data show it: active = GI50 up to about 1.1 µM and inactive = higher.

Columns and labels:
Test in all cases: NCI tumour cell line growth inhibition, 48 h
A549 = test system: A549
ACHN = test system: ACHN
CAKI-1 = test system: CAKI-1
COLO 205 = test system: COLO 205
DU-145 = test system: DU-145
EKVX = test system: EKVX
HCT-116 = test system: HCT-116
HOP-62 = test system: HOP-62
KM12 = test system: KM12
MDA-MB-435 = test system: MDA-MB-435
NCI-H23 = test system: NCI-H23
SF-268 = test system: SF-268
SF-295 = test system: SF-295
SK-MEL-2 = test system: SK-MEL-2
SN12C = test system: SN12C
SNB-19 = test system: SNB-19
TK-10 = test system: TK-10
U-251 = test system: U-251
UACC-257 = test system: UACC-257
UO-31 = test system: UO-31

Measured: GI50

COc1cc(OC(=O)c2ccccc2)cc2c1C(=O)C=CC2=O
inactive: A549 36.2 µM | ACHN 12.8 µM | CAKI-1 20.6 µM | COLO 205 16.2 µM | DU-145 17.7 µM | EKVX 13.2 µM | HCT-116 6.35 µM | HOP-62 42.9 µM | KM12 15.1 µM | MDA-MB-435 5.65 µM | NCI-H23 16.2 µM | SF-268 16.8 µM | SF-295 17.3 µM | SK-MEL-2 18.1 µM | SN12C 19.5 µM | SNB-19 30.6 µM | TK-10 17.9 µM | U-251 16.4 µM | UACC-257 16.2 µM | UO-31 11.2 µM

CCOC(=O)/C(=N\Nc1ccc(-n2c(C)nc3ccc(Br)cc3c2=O)cc1)C(C)=O
inactive: A549 53.8 µM | ACHN 93.1 µM | CAKI-1 > 100 µM | COLO 205 54.3 µM | DU-145 > 100 µM | EKVX 72.1 µM | HCT-116 43.6 µM | HOP-62 42.8 µM | KM12 59.6 µM | MDA-MB-435 50.6 µM | NCI-H23 69.5 µM | SF-268 67.6 µM | SF-295 48 µM | SK-MEL-2 70 µM | SN12C > 100 µM | SNB-19 52.1 µM | TK-10 60.3 µM | U-251 59.6 µM | UACC-257 84.5 µM | UO-31 29.8 µM

CC(C)(C)c1cc(Br)c(O)c(CN(Cc2cc(C(C)(C)C)cc(Br)c2O)C2CCCCC2)c1
inactive: A549 14.1 µM | ACHN 14.9 µM | CAKI-1 12.3 µM | COLO 205 11.2 µM | DU-145 13.9 µM | EKVX 14.8 µM | HCT-116 12.5 µM | HOP-62 15.2 µM | KM12 14.7 µM | MDA-MB-435 14.3 µM | NCI-H23 13.5 µM | SF-268 13.5 µM | SF-295 12.7 µM | SK-MEL-2 13.1 µM | SN12C 14.8 µM | SNB-19 14.1 µM | TK-10 15.8 µM | U-251 13.9 µM | UACC-257 4.14 µM | UO-31 14.4 µM

O=C1C=C/C(=N/c2cccc3c(/N=C4/C=CC(=O)O4)cccc23)O1
inactive: A549 > 100 µM | ACHN 29 µM | CAKI-1 18.9 µM | COLO 205 20.2 µM | DU-145 > 100 µM | EKVX 16.8 µM | HCT-116 24.8 µM | HOP-62 > 100 µM | KM12 > 100 µM | MDA-MB-435 44.5 µM | NCI-H23 50.4 µM | SF-268 52.6 µM | SF-295 > 100 µM | SK-MEL-2 > 100 µM | SN12C 29.9 µM | SNB-19 > 100 µM | TK-10 17.7 µM | U-251 > 100 µM | UACC-257 22.3 µM | UO-31 > 100 µM

CC(=O)O[C@H]1CCc2c(cc(N)c3c2C(=O)C[C@]2(C)C([C@H](C)CCCC(C)C)CCC32C)C1(C)C (stereo not given in full)
inactive: A549 > 100 µM | ACHN > 100 µM | CAKI-1 > 100 µM | COLO 205 > 100 µM | DU-145 > 100 µM | EKVX > 100 µM | HCT-116 89.7 µM | HOP-62 > 100 µM | KM12 > 100 µM | MDA-MB-435 86.7 µM | NCI-H23 60.5 µM | SF-268 > 100 µM | SF-295 > 100 µM | SK-MEL-2 > 100 µM | SN12C > 100 µM | SNB-19 > 100 µM | TK-10 > 100 µM | U-251 > 100 µM | UACC-257 85.7 µM | UO-31 > 100 µM

CC(C)(C)SC1=CCC[C@@H](P(=O)(c2ccccc2)c2ccccc2)[C@@H]2CCC[C@@H]12
inactive: A549 17.2 µM | ACHN 16.5 µM | CAKI-1 13.8 µM | COLO 205 18 µM | DU-145 17.2 µM | EKVX 18.6 µM | HCT-116 14.3 µM | HOP-62 17 µM | KM12 16.3 µM | MDA-MB-435 15 µM | NCI-H23 17.2 µM | SF-268 17.8 µM | SF-295 15.1 µM | SK-MEL-2 16.5 µM | SN12C 15.7 µM | SNB-19 16.1 µM | TK-10 17.5 µM | U-251 17.5 µM | UACC-257 17 µM | UO-31 16.5 µM

CCOC(=O)C(C)c1nc2cc(F)c(F)cc2[nH]c1=O (stereo not given)
inactive: A549 > 100 µM | ACHN > 100 µM | CAKI-1 > 100 µM | COLO 205 > 100 µM | DU-145 > 100 µM | EKVX > 100 µM | HCT-116 > 100 µM | HOP-62 > 100 µM | KM12 > 100 µM | MDA-MB-435 > 100 µM | NCI-H23 > 100 µM | SF-268 > 100 µM | SF-295 > 100 µM | SK-MEL-2 > 100 µM | SN12C > 100 µM | SNB-19 > 100 µM | TK-10 > 100 µM | U-251 > 100 µM | UACC-257 > 100 µM | UO-31 > 100 µM
